This is an account of results in patent US9346820B2, “HIV-1 protease inhibitors having gem-di-fluoro bicyclic P2-ligands” (priority 2013, dated 2016).

Values joined by “and” are separate entries in the source; they are usually repeats but may differ in a detail not shown here. Equal entries are not always repeated. Where two headings read alike, the source gives them in different places. Where only a bound is given, the exact number is not on record here.

Series [1] relates to HIV-1LPV^R5μM. Put plainly: microbe, parasite or virus in culture. The class given is cell-based. To be noted: for EC50: Human immunodeficiency virus 1, MT4, read-out: EC50 HIV-1LPV^R5μM; for fold change of EC50 HIV-1LPV^R5μM vs HIV-1NL4-3: number in parentheses. The procedure:
(§1) The susceptibility of HIV-1LAI to various drugs was determined as previously described with minor modifications. Briefly, MT-2 cells (10^4/ml) were exposed to 100 50% tissue culture infectious doses (TCID50) of HIV-1LAI in the presence or absence of various concentrations of drugs in 96-well microculture plates and were incubated at 37° C. for 7 days. After 100 μl of the medium was removed from each well, 3-(4,5-dimetylthiazol-2-yl)-2,5-diphenyltetrazolium bromide (MTT) solution (10 μl, 7.5 mg/ml in phosphate-buffered saline) was added to each well in the plate, followed by incubation at 37° C. for 2 h. […] All assays were performed in duplicate or triplicate. […] To determine the sensitivity of primary HIV-1 isolates to drugs, phytohemagglutinin-stimulated peripheral blood mononuclear cells (PHA-PBMC) (10^6/ml) were exposed to 50 TCID50 of each primary HIV-1 isolate and cultured in the presence or absence of various concentrations of drugs in 10-fold serial dilutions in 96-well microculture plates. In determining the drug susceptibility of certain laboratory HIV-1 strains, MT-4 cells were employed as target cells as previously described with minor modifications. In brief, MT-4 cells (10^5/ml) were exposed to 100 TCID50 of drug-resistant HIV-1 strains in the presence or absence of various concentrations of drugs and were incubated at 37° C. On day 7 of culture, the supernatants were harvested and the amounts of p24 Gag protein were determined by using a fully automated chemiluminescent enzyme immunoassay system (Lumipulse F: Fujirebio Inc., Tokyo). […] All assays were performed in duplicate or triplicate. PHA-PBMs were derived from a single donor in each independent experiment. Thus, for obtaining the data, three different donors were recruited.

Series [2] concerns HIV-1ATV^R5μM. Put plainly: microbe, parasite or virus in culture. Format: cell-based. To be noted: for EC50: Human immunodeficiency virus 1, MT4, read-out: EC50 HIV-1ATV^R5μM; for fold change of EC50 HIV-1ATV^R5μM vs HIV-1NL4-3: number in parentheses. The procedure:
as §1

Series [3] relates to HIV-1SQV^R5μM. Put plainly: microbe, parasite or virus in culture. Format: cell-based. The settings on record: for EC50: Human immunodeficiency virus 1, MT4, read-out: EC50 HIV-1SQV^R5μM; for fold change of EC50 HIV-1SQV^R5μM vs HIV-1NL4-3: number in parentheses. The procedure:
as §1

The subject of series [4] is HIV-1APV^R5μM. Put plainly: microbe, parasite or virus in culture. Format: cell-based. The settings on record: for EC50: Human immunodeficiency virus 1, MT4, read-out: EC50 HIV-1APV^R5μM; for fold change of EC50 HIV-1APV^R5μM vs HIV-1NL4-3: number in parentheses. The procedure: as §1
In series [5] the test system is HIV-1MDR/JSL. Put plainly: microbe, parasite or virus in culture. Format: cell-based. The settings on record: for EC50: Human immunodeficiency virus 1, read-out: EC50 HIV-1MDR/JSL (R5); for fold change of EC50 HIV-1MDR/JSL vs HIV-1ERS104pre: number in parentheses. The procedure: (§2) All primary HIV-1 strains were passaged once or twice in 3-day-old phytohemagglutinin activated peripheral blood mononuclear cells (PHA-PBM), and the culture supernatants were stored at −80° C. until use.
as §1

In series [6] the test system is HIV-1MDR/MM. Kind of series: microbe, parasite or virus in culture. Format: cell-based. To be noted: for EC50: Human immunodeficiency virus 1, read-out: EC50 HIV-1MDR/MM (R5); for fold change of EC50 HIV-1MDR/MM vs HIV-1ERS104pre: number in parentheses. The procedure:
as §2, §1

For series [7], the system named is HIV-1MDR/C. Kind of series: microbe, parasite or virus in culture. Format: cell-based. To be noted: for EC50: Human immunodeficiency virus 1, read-out: EC50 HIV-1MDR/C (X4); for fold change of EC50 HIV-1MDR/C vs HIV-1ERS104pre: number in parentheses. The procedure: as §2, §1
The test system of series [8] is HIV-1MDR/G. Kind of series: microbe, parasite or virus in culture. Format: cell-based. To be noted: for EC50: Human immunodeficiency virus 1, read-out: EC50 HIV-1MDR/G (X4); for fold change of EC50 HIV-1MDR/G vs HIV-1ERS104pre: number in parentheses. The procedure: as §2, §1
Series [9] has as its system HIV-1MDR/TM. Kind of series: microbe, parasite or virus in culture. The class given is cell-based. To be noted: for EC50: Human immunodeficiency virus 1, read-out: EC50 HIV-1MDR/TM (X4); for fold change of EC50 HIV-1MDR/TM vs HIV-1ERS104pre: number in parentheses. The procedure: as §2, §1
The test system of series [10] is HIV-1MDR/B. Kind of series: microbe, parasite or virus in culture. Format: cell-based. To be noted: for EC50: Human immunodeficiency virus 1, read-out: EC50 HIV-1MDR/B (X4); for fold change of EC50 HIV-1MDR/B vs HIV-1ERS104pre: number in parentheses. The procedure: as §2, §1
Series [11] can be described thus: Partition and distribution coefficients, shake-flask method. Format: physicochemical. The procedure: On day −1 of the experimental setting, saturation of 1-octanol (CH3 (CH2)6CH2OH) (Nacalai Tesque, Kyoto, Japan) water and tris-buffered saline (10X working solution 20 mM Tris, pH 7.4 and 0.9% NaCl, Sigma-Aldrich, St. Louis, Mo.) took place. Four different flasks were used: One containing 50 ml of water plus 100 ml of 1-octanol, the second flask contained 1-octanol saturated with water adding 50 ml of 1-octanol and 100 ml of water. The same ratios and volumes were kept for 1-octanol saturated with tris-buffer and tris-buffer saturated with 1-octanol. The flasks were sealed and placed into a room temperature bio shaker for 24 hours at 90 revolutions per minute. […] Successive dilutions were made to obtain concentrations of 10 μM, 1 μM and 0.1 μM. A standard curve was generated on a light spectrophotometer (DU Series 700, Beckman Coulter Fullerton, Calif.) at 230 nanometer absorbances.
On day 1 of the experiment, the lipid and liquid interfaces were separated, and compounds were diluted again from 20 mM DMSO to 100 μM using the 1-octanol, water and Tris-buffered saline obtained from the shake-flask assay. The resulting diluted compounds were then added to separate serum tubes containing equal proportions of 1-octanol and water, and 1-octanol and Tris-buffered saline. The solution was handshaken for 5 minutes and then centrifuged at 3,500 rpm and room temperature for 20 minutes. Finally, the compounds were recovered from the 1-octanol, Tris-buffer and water interfaces and then measured on a light spectrophotometer.
The values for logP and logD were obtained by applying the following mathematical formulas: […]
The addition of fluorine atoms is generally expected to confer greater lipophilicity on nucleoside analogs and certain compounds (37-39). […] 1-Octanol, organic alcohol, and water were used for logP determination, while tris-buffered saline (pH 7.4) and water were utilized for logD determination. Prior to obtaining the actual values, a standard curve was generated as a reference and drug concentrations attained for each compartment (1-octanol, water and tris-buffered saline) were measured on a light spectrophotometer (at 230 nanometer absorbance) as previously described by Rak et al. (40).
DRV was used as a control. N-octanol, an organic alcohol, and water were used for logP determination, while tris buffer and water were utilized for the logD assay. Prior to the retrieval of actual values a standard curve was generated as a reference. The drug concentrations for each compartment (octanol, water and tris buffer) were measured at 230 nanometer absorbances using a light spectrophotometer. Assay was performed following the OECD guidelines for testing of chemicals “Partition coefficient (n-octanol-water): shake flask method”, adopted by the council on 27 Jul. 1995.^(a) n-octanol used for logPOW determination;^(b) n-octanol used for logD assay. The formulas

The subject of series [12] is HIV-1ERS104pre. Put plainly: p24 Gag production inhibition in PHA-PBMs, wild-type clinical isolate. Format: cell-based. The procedure:
as §2, §1

With `COc1ccc(S(=O)(=O)N(CC(C)C)C[C@@H](O)[C@H](Cc2ccccc2)NC(=O)OC2CO[C@H]3OCC(F)(F)[C@@H]23)cc1` (stereo partly drawn) [GRL-04810], in series [1], the EC50 amounted to 30 nM and the “fold change of EC50 HIV-1LPV^R5μM vs HIV-1NL4-3” value turned out to be 66 fold. Moreover, in [2], the EC50 amounted to 20 nM and the “fold change of EC50 HIV-1ATV^R5μM vs HIV-1NL4-3” value is 36 fold. Moreover, in series [3], the EC50 is 130 nM and the “fold change of EC50 HIV-1SQV^R5μM vs HIV-1NL4-3” value amounted to 260 fold. Besides, in [4], the EC50 turned out to be 430 nM and the “fold change of EC50 HIV-1APV^R5μM vs HIV-1NL4-3” value is 860 fold. Moreover, in series [5], the EC50 was 21 nM and the “fold change of EC50 HIV-1MDR/JSL vs HIV-1ERS104pre” value was found to be 10 fold. Besides, in series [6], the EC50 was determined as 2 nM and the “fold change of EC50 HIV-1MDR/MM vs HIV-1ERS104pre” value is 1 fold. Moreover, in [7], the EC50 was 2 nM and the “fold change of EC50 HIV-1MDR/C vs HIV-1ERS104pre” value was 1 fold. Besides, in series [8], the EC50 was determined as 4 nM and the “fold change of EC50 HIV-1MDR/G vs HIV-1ERS104pre” value is 2 fold. For the same molecule, in [9], the EC50 is 4 nM and the “fold change of EC50 HIV-1MDR/TM vs HIV-1ERS104pre” value is 2 fold. In [10], the EC50 came out at 14 nM and the “fold change of EC50 HIV-1MDR/B vs HIV-1ERS104pre” value was 7 fold. Further, the “Log POW (Octanol/Water)” value in series [11] was −0.14. Also, in [11] (n-octanol used for logD assay), the “Concentration in octanol^(b)” value was 72 µM and 72.00 µM. Besides, the “Concentration in octanol^(a)” value in series [11] (n-octanol used for logPOW determination) is 70.00 µM. Also, the “Log DOct/Tris pH 7.40” value in series [11] (pH 7.4) is listed as −0.29. For the same molecule, in [11] (shake flask, 100 μM, 230 nm), the “Concentration in tris buffer” value came to 42.32 µM and the Concentration in water is 99.78 µM. The EC50 in [12] (Human immunodeficiency virus 1, PHA-PBMs, p24 Gag endpoint, read-out: EC50 HIV-1ERS104pre (X4)) was 2.3 nM.
As for `CC(C)(C)NC(=O)[C@@H]1C[C@@H]2CCCC[C@@H]2CN1C[C@@H](O)[C@H](Cc1ccccc1)NC(=O)[C@H](CC(N)=O)NC(=O)c1ccc2ccccc2n1` [SQV, Saquinavir], in series [1], the EC50 stood at 25 nM and the “fold change of EC50 HIV-1LPV^R5μM vs HIV-1NL4-3” value stood at 1 fold. Also, in series [2], the EC50 came to 460 nM and the “fold change of EC50 HIV-1ATV^R5μM vs HIV-1NL4-3” value is on record as 12 fold. Also, in [3], the EC50 was greater than 1000 nM and the “fold change of EC50 HIV-1SQV^R5μM vs HIV-1NL4-3” value is listed as greater than 25 fold. In [4], the EC50 stood at 90 nM and the “fold change of EC50 HIV-1APV^R5μM vs HIV-1NL4-3” value came out at 2 fold. Moreover, in [5], the EC50 stood at 530 nM and the “fold change of EC50 HIV-1MDR/JSL vs HIV-1ERS104pre” value was determined as 133 fold. Moreover, in [6], the EC50 turned out to be 110 nM and the “fold change of EC50 HIV-1MDR/MM vs HIV-1ERS104pre” value is 27 fold. Also, in [7], the EC50 came out at 310 nM and the “fold change of EC50 HIV-1MDR/C vs HIV-1ERS104pre” value came out at 78 fold. Besides, in [8], the EC50 is 39 nM and the “fold change of EC50 HIV-1MDR/G vs HIV-1ERS104pre” value amounted to 10 fold. Besides, in series [9], the EC50 turned out to be 100 nM and the “fold change of EC50 HIV-1MDR/TM vs HIV-1ERS104pre” value was 25 fold. In addition, in series [10], the EC50 worked out at 350 nM and the “fold change of EC50 HIV-1MDR/B vs HIV-1ERS104pre” value stood at 90 fold. For the same molecule, the EC50 in [12] (Human immunodeficiency virus 1, read-out: EC50 HIV-1ERS104pre (X4)) was determined as 3.9 nM.
